# Test results as given in patent publication US20120003177A1 (priority 2008, published 2012).
# Entries after “also recorded” stand apart in the source; their conditions may differ. Read-outs that look alike come from different tables or passages of the source.
# Legend:
# [1] = system: SKOV-3 human ovarian cancer cell line; assay: MTT cytotoxicity of polycurcumins to SKOV-3 cells (72 h treatment); conditions: for IC50: Homo sapiens
# Procedure: The human ovarian carcinoma SKOV-3 cell line was purchased from American type culture collection (ATCC). Cells were cultured in RPMI 1640 medium supplemented with 10% fetal bovine serum (HyClone, Logan, Utah) and grown at 37° C. in a humidified atmosphere of 5% CO2 (v/v) in air. All of the experiments involving cells were performed on cells in the exponential growth phase.
# The cytotoxicity of polycurcumins was determined using the standard 3-(4,5-dimethylthiazolyl-2)-2,5-diphenyltetrazolium bromide (MTT) cell proliferation kit (ATCC, Manassas, Va.) according to manufacturer's protocol. In brief, SKOV-3 cells were seeded onto 96-well plates with a density of 15,000 cells per well and incubated at 37° C. in a humidified atmosphere of 95% air and 5% CO2 for 16 h. The medium in each well was replaced with 200 μL of culture medium containing the treatments and cultured for 72 h. The medium in each well was then replaced with fresh media and the cells were incubated for another 24 h. The incubation medium was then replaced with 100 μL of fresh medium and 10 μL of MIT reagent. After 6 h, 100 μL of detergent reagent was added to each well and incubated for 18 h at room temperature in the dark until all the crystals dissolved. The absorbance intensity at 570 nm was recorded on a Bio-Rad (model 550) microplate reader. Cell viability is defined as the percent live cells compared with untreated controls.
# For each polycurcumin tested, the commoners such as 3,3′-dithiodipropionic acid, pyromellitic dianhydride, tri(ethylene glycol) divinyl ether and PEG, were used as controls.
# [2] = cited from earlier work
# [3] = system: DU145 prostate carcinoma, A549 lung carcinoma, and HT29 colon carcinoma; conditions: read-out: IC50 (50% inhibitory concentration); variety of cancer cell lines; cited from earlier work
# [4] = PBS at pH 7.2; cited from earlier work
molecule,measurement,setting,value
C=COCCOCCOCCOC=C [tri(ethylene glycol) divinyl ether],cytotoxicity of comonomer controls against SKOV-3 cells,"[1]; SKOV-3, MTT, comonomers as controls",no significant cytotoxicity
"O=C(O)CCSSCCC(=O)O [3,3′-dithiodipropionic acid]",cytotoxicity of comonomer controls against SKOV-3 cells,[1],no significant cytotoxicity
polyethylene glycol [PEG],cytotoxicity of comonomer controls against SKOV-3 cells,[1],no significant cytotoxicity
O=c1oc(=O)c2cc3c(=O)oc(=O)c3cc12 [pyromellitic dianhydride],cytotoxicity of comonomer controls against SKOV-3 cells,[1],no significant cytotoxicity
"COc1cc(C=CC(=O)CC(=O)C=Cc2ccc(O)c(OC)c2)ccc1O [Curcumin, 1,7-bis-(4-hydroxy-3-methoxyphenyl)-hepta-1,6-diene-3,5-dione]",IC50,"[1]; SK-OV-3, read-out: IC50, curcumin equivalent dose",21 µM
same,IC50,"[1]; SK-OV-3, read-out: IC50-C (IC50 in terms of curcumin-equivalent dose)",7.8 µg/mL
same,"solubility of free curcumin in water, in words",[2],almost insoluble in water; also recorded: practically insoluble in water
same,IC50,[3],10 to 75 µM
same,half life (t1/2),[4],less than 10 min
